Source: ChEMBL document CHEMBL3286268, “Green synthesis and anti-inflammatory studies of a series of 1,1-bis(heteroaryl)alkane derivatives” (Eur J Med Chem, 2014)

Key:
[1] = system: RAW264.7; assay: Antiinflammatory activity in mouse RAW264.7 cells assessed as inhibition of LPS-induced nitrite production at 50 uM after 22 hrs by Griess method relative to LPS-treated control; type: functional; conditions: RAW264.7, 22 h
[2] = Cytotoxicity against mouse RAW264.7 cells assessed as cell viability at 50 uM after 22 hrs by MTT assay relative to control; type: cell-based; conditions: read-out: Activity
[3] = system: RAW264.7; assay: Antiinflammatory activity in mouse RAW264.7 cells assessed as inhibition of LPS-induced nitrite production after 22 hrs by Griess method; type: functional, cell-based; conditions: RAW264.7, 22 h

IC50 [3] | SMILES | inhibition at 50 µM [1] | viability at 22 h, 50 µM [2]
50.7 µM | Cc1ccc(C(c2ccc(Cl)cc2)c2ccc(C)o2)o1 | 39.5% | 101%
– | Cc1ccc(C(CC(C)C)c2ccc(C)o2)o1 | 21.4% | 101%
– | CCC(CC)C(c1ccc(C)o1)c1ccc(C)o1 | 26.6% | 101%
42.4 µM | Cc1ccc(C(c2ccc([N+](=O)[O-])cc2)c2ccc(C)o2)o1 | 73.2% | 96.3%
41.1 µM | CCc1ccc(C(c2ccc([N+](=O)[O-])cc2)c2ccc(CC)o2)o1 | 63.3% | 101%
– | Cc1ccc(C(c2ccc(C)o2)C2CCCCC2)o1 | 36.9% | 102%
44 µM | COc1cc(C(c2ccc(C)o2)c2ccc(C)o2)ccc1O | 63.7% | 98.2%
56.9 µM | CCc1ccc(C(c2ccc([N+](=O)[O-])cc2)c2ccc(CC)[nH]2)[nH]1 | 50.7% | 99.2%
– | CCCCC(c1ccc(C)o1)c1ccc(C)o1 | 31.7% | 100%
74.2 µM | CCc1ccc(C(CCc2ccccc2)c2ccc(CC)o2)o1 | 39.4% | 101%
– | COc1ccc(C(c2ccc(C)o2)c2ccc(C)o2)cc1 | 34.6% | 97.8%
70.5 µM | CCc1ccc(C(c2ccccc2)c2ccc(CC)o2)o1 | 41.5% | 101%
60.8 µM | Cc1ccc(C(CCc2ccccc2)c2ccc(C)o2)o1 | 46.8% | 100%
– | Cc1ccc(C(CCc2ccccc2)c2ccc(C)s2)s1 | 21.5% | 103%
– | Cc1ccc(C(c2ccccc2)c2ccc(C)o2)o1 | 33.4% | 99.3%
– | Cc1ccc(C(c2ccc(Br)cc2)c2ccc(C)o2)o1 | 24.9% | 101%
– | c1ccc(C(c2ccc[nH]2)c2ccc[nH]2)cc1 | 2.1% | 100%
44.8 µM | Cc1ccc(C(c2ccc(F)cc2)c2ccc(C)o2)o1 | 64.2% | 97.8%
– | O=[N+]([O-])c1ccc(C(c2ccc[nH]2)c2ccc[nH]2)cc1 | 26.9% | 95.8%
– | CCC(c1ccc(C)o1)c1ccc(C)o1 | 30.9% | 101%

SMILES | IC50 [3] | inhibition at 50 µM [1] | viability at 22 h, 50 µM [2]
N=C(N)NN [PIMAGEDINE] | 43.3 µM | 70.2% | 100%
